{"source": "patent US9079837B2", "about": "“Water-soluble fluorescent fullerene derivative, and preparation method thereof” (KOREA RESEARCH INSTITUTE OF BIOSCIENCE AND BIOTECHNOLOGY, priority 2010, dated 2015)", "origin": "cited, not measured here", "key": {"[1]": {"conditions": "for fluorescence quantum yield: literature value (J. Am. Chem. Soc. 1993, 1994), room temperature"}, "[2]": {"conditions": "water; Sivaraman et al., J. Org. Chem. 1992"}}, "note": "Structures can show the parent of a compound that is named as a salt. Where two headings read alike, the source gives them in different places.", "data": [{"compound": "c12c3c4c5c1c1c6c7c2c2c8c3c3c9c4c4c%10c5c5c1c1c6c6c%11c7c2c2c7c8c3c3c8c9c4c4c9c%10c5c5c1c1c6c6c%11c2c2c7c3c3c8c4c4c9c5c1c1c6c2c3c41", "note": "[C60 fullerene, buckminster fullerene (C60)]", "values": [{"measurement": "fluorescence quantum yield", "setting": "[1]; listed as fullerenes", "value": "about 1×10^−4"}, {"measurement": "fluorescence quantum yield", "setting": "[1]; listed as general fullerene", "value": "1×10^−4"}, {"measurement": "solubility", "setting": "[2]", "value": "1.3e-05", "unit": "ng/mL"}]}, {"compound": "C=C[C@H]1C[N@@]2CC[C@H]1C[C@H]2[C@H](O)c1ccnc2ccc(OC)cc12", "note": "[quinine sulfate]", "values": [{"measurement": "fluorescence quantum yield of standard", "setting": "[1]; standard value", "value": "55×10^−2"}]}]}
